Residues, ends and D or L forms follow the SMILES beside them. *: point of attachment. Cbz = O=C(OCc1ccccc1)*
Structure (SMILES) | melting point [°C]
COc1cc2cc(C(=O)N3CC(CCl)c4c3cc(N)c3ncccc43)[nH]c2c(OC)c1OC (configuration not stated) | 225 to 227
O=S(=O)(Cl)c1ccc(-c2ccc3c(c2)OCO3)s1 | 117 to 119
Cc1ccnc(C(=O)c2[nH]c3cc(Cl)ccc3c2N)c1 | 195 to 196
Clc1cnc(N2CCNCC2)cn1 | 98 to 102
COC(=O)c1n[nH]c2nc(N3CCN(C)CC3)ccc12 | 230 to 231
O=C(O)c1cc(SC(F)(F)F)c(-c2ccc(Cl)cc2)[nH]1 | 176 to 178
CC(=O)c1nc2ccc(OCC(F)(F)C(F)(F)C(F)(F)C(F)F)cc2cc1O | 69 to 71
Cn1nc(Oc2ccc(N)c(N)c2)cc1C(F)(F)F | 109 to 111
COc1ccc(COc2cccc(OC)c2C(C)=O)cc1 | 105 to 107
Cc1ccc([N+](=O)[O-])cc1Nc1nccc(-c2cncnc2)n1 | 200 to 203
CC(C)(C)OC(=O)N1CCN(c2ccc(Oc3cc(Cl)ccc3[N+](=O)[O-])cc2)CC1 | 124 to 125
CCCCCCCCCCCCNC(=O)c1ccccc1N | 73 to 75
COc1ccc(/C=C(\CSC(C)=O)C(=O)O)cc1 | 155
CN(C)C1(c2ccccc2)CCC(CNC(=O)N2CCC(c3c[nH]c4ccccc34)C2)CC1 (configuration not stated) | 103 to 106
N#Cc1ccccc1N1CCN(CCCCCC(=O)O)CC1 | 120
CC(C)NC(=O)NC1CCC(=O)c2ccccc21 (configuration not stated) | 185 to 188
CC(=O)c1c[nH]c2c3c(ccc12)OCC3 | 233 to 234
CCCCC(CC)COC(=O)C(C#N)=Cc1ccc(NC(C)=O)cc1 (configuration not stated) | 119
CCCCNS(=O)(=O)CC(O)C(O)C(CC1CCCCC1)NC(=O)C(Cc1c[nH]cn1)NS(=O)(=O)CCc1ccccc1 (configuration not stated) | 208 to 210
O=S(=O)(Cl)c1ccc(-c2cccc(F)c2)s1 | 75 to 84
CCCCCS(=O)(=O)NC(=O)/C=C/c1cc(OCC2CC2)nn1Cc1ccc(C(F)(F)F)cc1Cl | 148 to 151
COC12CC(c3nnc(-c4cncc(Br)c4)o3)CN(C)C1Cc1c[nH]c3cccc2c13 (configuration not stated) | 155 to 157
CCCn1cccc1C(N)=S | 88 to 91
Cc1cc(O)nc2cc(Br)ccc12 | 275 to 276
CCOCc1nc2c(N)nc3c(c2n1CC1(OCCS(C)(=O)=O)CCC1)CCCC3 | 186 to 188
CN(C)C(=C(C#N)C#N)N(C)N=Cc1ccccc1 | 127 to 128
Cc1c(-c2cccc(C(F)(F)F)c2F)c2cccc(Cl)c2n1CCCNS(C)(=O)=O | 168
CCCCCCCCCn1ccc(C#N)cc1=O | 46 to 48

Structure (SMILES) | melting point [°C]
Cc1ccc(C(C)(C)C)cc1S(=O)(=O)Cl | 137 to 138
CN1C(=O)C(=Cc2cc(C(C)(C)C)c(O)c(C(C)(C)C)c2)SC1O (configuration not stated) | 165 to 170
Cc1ccc(C)c(-c2c(C)ccc(C)c2O)c1O | 110 to 113
CCOC(=O)C(C)(O)c1ccncc1F (configuration not stated) | 56 to 60
Clc1cc(Cl)c2cccc3c2c1N=C3NCCCCCCCCCCn1ccnc1 | 129 to 131
C[C@@H](n1cccn1)[C@](O)(Cn1ccnc1)c1ccc(F)cc1F | 142 to 143
CCOC(=O)CCCCCC=C(NCCC(O)C1CCCCC1)C(=O)OCC (configuration not stated) | 97 to 99
O=C(O)c1cnn2c(C(F)F)cc(-c3ccc(OC(F)(F)F)cc3)nc12 | 231
O=C1C=C(NC(=O)C(=O)c2cn(Cc3ccc(Cl)cc3)c3cc(Cl)ccc23)CO1 | 255 to 257
O=c1ccc(Br)cn1CC1(O)CCN(Cc2ccccc2F)CC1 | 184 to 186
O=C1NC2CCCC1NC2=O | 280 to 283
CC(=O)OC1CSC(Oc2cccc(C)n2)C(OC(C)=O)C1OC(C)=O (configuration not stated) | 106
CCc1cc(=O)c(C(N)=O)c(CC)[nH]1 | 254
NC(=O)CCC(NC(=O)OCc1ccccc1)C(=O)NCC(=O)NCC(=O)NC(CO)C(=O)NC(CC(N)=O)C(=O)NC(Cc1ccccc1)C(N)=O (configuration not stated) (Cbz-QGGSNF-NH2; configuration not given here) | 225 to 227
CN(C)CCNc1nc(Nc2cccc(NS(C)(=O)=O)c2)nc2[nH]cnc12 | 191 to 195
CC(=O)Nc1ccccc1C(=O)Nc1ccc(N2CCN3CCC2CC3)cc1 | 191
CCOC(=O)C1=C(C)NC(CSCOC(C)=O)=C(C(=O)OCC)C1c1cccc([N+](=O)[O-])c1 (configuration not stated) | 118 to 121
N#Cc1c(Cl)ccc(C(=O)O)c1Cl | 230 to 232
COC1=NS(=O)(=O)N=C1OC | 200 to 202
CCc1cc([N+](=O)[O-])c(NC(CC)CC)c([N+](=O)[O-])c1COC | 28 to 29
CC(C)(C)SC(=S)c1cc(C(C)(C)C)c(O)c(C(C)(C)C)c1 | 128 to 130
CC(C)(CCCCCCNS(=O)(=O)c1ccc(Cl)cc1)C(=O)O | 95 to 96
CCCCCCn1nnc(NC(=O)Nc2c(C(C)C)cccc2C(C)C)n1 | 154 to 156
Cc1nc(-c2ccccc2)n(C)c1C=NOCCO | 95 to 97
COc1c2c(cc3c1OCO3)C(=O)CN(C)C2 | 116 to 119
O=[N+]([O-])c1cc(F)cc2c(Cl)ccnc12 | 120 to 130
COc1nc2c(c3ccccc13)c1cc(Cl)ccc1n2C | 179 to 180

Continued, values first:

melting point [°C] | Structure (SMILES)
192 to 195 | O=Cc1c2ccccc2c(C=O)c2cc(Cl)ccc12
140 to 141 | COc1ccc(CS[C@H]2C[C@@H](C(=O)N3CCN(C)CC3)N(C(=O)OCc3ccc([N+](=O)[O-])cc3)C2)cc1
245 to 247 | CCOC(=O)Nc1nc(-c2ccccc2)c(-c2nc3ccccc3c(=O)n2-c2ccc(C(C)=O)cc2)s1
79 to 81 | CC(=O)Cc1ccc(-c2ccc(Cl)cc2)cc1
176 | Fc1ccc(Cn2c(NC3CCN(CCNc4nc(-c5ccccc5)cs4)CC3)nc3ccccc32)cc1
283 to 285 | COc1ccc(N2CCOCC2)c2sc(-c3nc4ccccc4n3C)nc12
289 to 291 | Cc1cc(C)cc(NC(=O)NCc2ccc3c(c2)CN(C2CCC(=O)NC2=O)C3=O)c1 (configuration not stated)
250 to 253 | Cc1c(C(=O)c2ccccc2)[nH]c(CC(=O)O)c1C(=O)O
212 to 215 | Cc1ccccc1C(=O)Nc1ccc(C(=O)N2Cc3cccn3Cc3ccccc32)cc1
208 to 210 | O=C(Nc1cccc(-c2ccnc3c(C(=O)c4cccs4)cnn23)c1)c1cc(C(F)(F)F)ccc1C(F)(F)F
122 to 124 | O=C(Nc1ccc(Oc2ccnc(NCC3OCCO3)n2)c2ccccc12)c1cc(F)cc(N2CCOCC2)c1
149 to 150 | O=C1C(Cc2ccccc2)C(c2ccccc2)Nc2ccccc2N1Cc1ccccc1 (configuration not stated)
131 to 133 | CSc1ccc2ncc([N+](=O)[O-])c(-c3ccccc3)c2c1
288 to 289 | COC1(c2ccccc2)CCc2c(C(=O)O)cc3c(nc(C)n3C)c2O1 (configuration not stated)
111 to 113 | COC(=O)Cc1cccc(C(=O)c2ccc(O)cc2)c1
144 to 146 | O=[N+]([O-])c1ccc2c(c1)CC(O)c1ccccc1S2 (configuration not stated)
161 to 165 | CC(C)(C)OC(=O)N1CCC[C@@H](Nc2nccc(-c3c(-c4cccc(C(N)=O)c4)nc4sccn34)n2)C1
216 to 217 | O=C(N[C@H](Cc1ccc(CC(F)(F)C(F)(F)F)cc1)[C@@H](O)c1cccc(Cl)c1)c1cccc2c(Cl)cccc12 (racemic)
102 to 103 | Cc1oc(-c2ccccc2)nc1COc1ccc(COc2ccc(-c3ccccc3)cc2CC(=O)O)cc1
138 to 140 | CC(=O)NC[C@H]1CN(c2ccc(N3C[C@H]4CN(C(=O)COCc5ccccc5)C[C@H]4C3)c(F)c2)C(=O)O1
130 to 131 | CCOC(=O)Cc1nnc(-c2ccc(OC)cc2)n1-c1ccccc1

melting point [°C] | Structure (SMILES)
> 320 | O=C(O)C(=O)Nc1ccc(Oc2ccc(NC(=O)C(=O)O)cc2)cc1
249 to 250 | C#CCN1CCN(CC(=O)N2c3ccccc3C(=O)Nc3cccnc32)CC1
178 to 180 | O=C1CCCN(C(=O)Cc2ccccc2)C(=O)CCc2cc(Cl)ccc21
279 to 280 | Cc1ccc(-c2ccccc2)c(O)c1-c1ccccc1
173 to 175 | NC(=S)NC(c1ccccc1)c1ccc(Cl)cc1 (configuration not stated)
151 to 154 | CCCO[C@@H](Cc1ccc(OCCc2nc(-c3ccc(-c4ccccc4)cc3)oc2C)c2ccccc12)C(=O)O
128 to 131 | CCOC(=O)c1cnc2c(c(-c3ccccc3)nn2C)c1N(C)S(=O)(=O)c1ccc(Oc2ccncc2)cc1
216 | Cc1nc(NC(=O)c2cnn3c(C(F)F)cc(-c4ccc(C(F)(F)F)cc4)nc23)sc1S(=O)(=O)N(C)CCO
91 to 94 | COc1ccccc1-c1cccn2nc(Nc3ccc4c(c3)CCN(CCS(C)(=O)=O)CC4)nc12
108 to 109 | O=S(=O)(c1ccc(Cl)cc1)n1ccc2cc(F)ccc21
174 to 176 | O=C(Nc1cc2c(s1)-c1ccccc1OC2C1=CCCC=C1)C(F)(F)F (configuration not stated)
193 to 195 | CCNc1ncc2ccc(=O)n(-c3ccccc3)c2n1
174 to 175 | O=C(Nc1ccc(-n2nc(C(F)(F)F)cc2C(F)(F)F)cc1)C1=CCCC1
222 to 224 | COc1ccccc1C1(CC(=O)O)C(=O)Nc2cc(Cl)c(Cl)cc21 (configuration not stated)
241 to 242 | Nc1cc(-c2ccnc3c(C(=O)c4cccs4)cnn23)ccc1F
199 to 201 | CC(=O)Nc1nc(CCc2ccc(N)cc2)c(C(=O)NCc2ccc(C(F)(F)F)cc2)s1
223 to 225 | Cc1nc2c(O[C@@H]3c4ccccc4C[C@H]3O)cc(Cl)cn2c1N (relative stereo)
204 to 205 | COC(=O)Nc1nccc(Oc2ccc3c(C(=O)Nc4ccc(F)c(C(F)(F)F)c4)cccc3c2)n1
207 | O=C(Nc1ccccc1S(=O)(=O)N1CCCCC1)N[C@@H](Cc1ccc(Nc2nccc3cnccc23)cc1)C(=O)O
288 to 290 | O=C(O)c1ccc2nc3n(c(=O)c2c1)CCCC3=Cc1ccccc1
133 to 135 | O=c1cc(CNCc2ccccc2)c2ccc(OCc3cccc(Cl)c3)cc2o1
